From patent US10703721B2, “Caffeic acid derivatives and uses thereof” (Board of Regents, The University of Texas System, priority 2017, dated 2020)

Legend:
Assay in all cases: Cytotoxicity assay (MTS, 72 hours)
MDA-PATC-53 = type: cell-based
Description: (§1) Tumor cell lines were maintained in DMEM with 10% fetal bovine serum (FBS), 100 microg/ml streptomycin, and 100 IU/ml penicillin in 5% CO2 at 37° C.
(§2) For the cytotoxicity assays, 1,500 tumor cells were plated into 96-well flat-bottom tissue culture plates in complete medium (see Tables 2 and 3). After 20 hours fresh media containing different concentrations of compounds disclosed herein added. Cell number was counted after 72 hours by using MTS assay (Promega CellTiter AQ Non-Radioactive Cell Proliferation Assay kit, Madison, Wis., USA) by measuring absorbance at 490 nm with a 96-well plate reader. Data are presented as IC50 values derived from relative inhibition of proliferation plus SD of eight measurements. The number of cells in the presence of DMSO was taken as 100%.

Colo357-FG = type: cell-based, human
Description: as §1
Colo357-FG and Colo357-L3: Colo357-FG, a fast-growing variant produced regional lymph node metastasis in 58% of nude mice after subcutaneous implantation and growth. It also produced hepatic metastasis in 64% and pulmonary metastasis in 43% of nude mice after intrasplenic implantation of tumor cells. See Vezeridis et al. (1990).
as §2

SU.86.86 = type: cell-based
Description: as §1, §2

A375 = type: cell-based
Description: as §1, §2

WM35 = type: cell-based
Description: as §1, §2

HH = type: cell-based; conditions: Table 3, CTCL
Description: as §1, §2

LNZ-428 = type: cell-based; conditions: Table 3, GBM
Description: as §1, §2

231 = type: cell-based; conditions: Table 3, Breast
Description: as §1, §2

Ovcar-5 = type: cell-based
Description: as §1, §2

BT-58 = type: cell-based; conditions: Table 3, Ependymoma
Description: as §1, §2

PC3 = type: cell-based
Description: as §1, §2

BT483 = type: cell-based
Description: as §1, §2

231-MB = type: cell-based; conditions: Table 3, Breast
Description: as §1, §2

4T1 = type: cell-based
Description: as §1, §2

SK-MEL-28 = type: cell-based
Description: as §1, §2

MDA-PATC-108 = type: cell-based; conditions: Table 3, Panc
Description: as §1, §2

U87MG = type: cell-based; conditions: Table 3, GBM
Description: as §1, §2

MIA-PaCa-2 = type: cell-based
Description: as §1, §2

HuT78 = type: cell-based
Description: as §1, §2

HD2 = type: cell-based; conditions: Table 3, Myeloma
Description: as §2, with “After” for “For the cytotoxicity assays, 1,500 tumor cells were plated into 96-well flat-bottom tissue culture plates in complete medium (see Tables 2 and 3). After”

WM793 = type: cell-based, human
Description: as §1
WM793 human melanoma tumor cell lines were used from different stages of progression and their biological and molecular analyses. See Satyamoorthy et al. (1997).
as §2

LN319 = type: cell-based; conditions: LN-319, Table 3, GBM
Description: as §1, §2

MDA-PATC-153 = type: cell-based; conditions: Table 3, Panc
Description: as §1, §2

D423 enol = type: cell-based; conditions: Table 3, GBM
Description: as §1, §2

MDA-PATC-148 = type: cell-based; conditions: Table 3, Panc
Description: as §1, §2

D423 = type: cell-based; conditions: Table 3, GBM
Description: as §1, §2

[1] = MDA-PATC53, 72 h, Table 2, MDA-PATC-53
[2] = Homo sapiens, COLO 357/FG, 72 h, Table 2, Colo357-FG

Question: Which results are given for `CCN(CC)CCOc1ccc(C(CC)(CC)NC(=O)/C(C#N)=C/c2ccccn2)cc1` [WP 1727, (E)-2-cyano-N-(3-(4-(2-(diethylamino)ethoxy)phenyl)pentan-3-yl)-3-(pyridin-2-yl)acrylamide]?
Answer: IC50 (MDA-PATC-53; [1]): 3000 nM; IC50 (Colo357-FG; [2]): 2200 nM

Question: How did the IC50 (MDA-PATC-53; [1]) turn out when `CCN(CC)CCOc1ccc(C(CC)(CC)NC(=O)/C(C#N)=C/c2cccc(Cl)n2)cc1` [WP 1794] was run?
Answer: 900 nM

Question: What about the IC50 (Colo357-FG; [2]) of the same molecule?
Answer: 600 nM

Question: Which results are given for `CCC(CC)(NC(=O)/C(C#N)=C/c1cccc(Cl)n1)c1ccc(OCCN2CCOCC2)cc1` [WP 1721, (E)-3-(6-chloropyridin-2-yl)-2-cyano-N-(3-(4-(2-morpholinoethoxy)phenyl)pentan-3-yl)acrylamide]?
Answer: IC50 (MDA-PATC-53; [1]): 1100 nM; IC50 (Colo357-FG; [2]): 1100 nM

Question: Which results are given for `CCC(CC)(NC(=O)/C(C#N)=C/c1cccc(Cl)n1)c1ccc(OCCOCCN2CCOCC2)cc1` [WP 1723, (E)-3-(6-chloropyridin-2-yl)-2-cyano-N-(3-(4-(2-(2-morpholinoethoxy)ethoxy)phenyl)pentan-3-yl)acrylamide]?
Answer: IC50 (MDA-PATC-53; [1]): 1400 nM; IC50 (Colo357-FG; [2]): 1200 nM

Question: For `CCC(CC)(NC(=O)/C(C#N)=C/c1cccc(Cl)n1)c1ccc(OCCN2CCOCC2)cc1` [WP 1793], which IC50 (MDA-PATC-53; Table 2, MDA-PATC-53) is on record?
Answer: 1000 nM

Question: And the IC50 (Colo357-FG; Table 2, Colo357-FG)?
Answer: 800 nM

Question: `CCC(CC)(NC(=O)/C(C#N)=C/c1ccccn1)c1ccc(OCCOCCN2CCOCC2)cc1` [WP 1724, (E)-2-cyano-N-(3-(4-(2-(2-morpholinoethoxy)ethoxy)phenyl)pentan-3-yl)-3-(pyridin-2-yl)acrylamide] was tested. Which IC50 (MDA-PATC-53; [1]) did it give?
Answer: 3500 nM

Question: And the IC50 (Colo357-FG; [2])?
Answer: 2800 nM

Question: How did the IC50 (MDA-PATC-53; [1]) turn out when `CCC(CC)(NC(=O)/C(C#N)=C/c1cccc(Cl)n1)c1ccc(OCCOCCN2CCN(C)CC2)cc1` [WP 1731, (E)-3-(6-chloropyridin-2-yl)-2-cyano-N-(3-(4-(2-(2-(4-methylpiperazin-1-yl)ethoxy)ethoxy)phenyl)pentan-3-yl)acrylamide] was run?
Answer: 1800 nM

Question: And the IC50 (Colo357-FG; [2])?
Answer: 1500 nM

Question: With `C[C@H](NC(=O)/C(C#N)=C/c1cccc(Br)n1)c1ccccc1` [WP1066, reference compound] as the molecule, how does the IC50 (SU.86.86; Table 3, Panc) read?
Answer: 2500 nM

Question: What about the IC50 (MDA-PATC-53; Table 2, MDA-PATC-53) of the same molecule?
Answer: 2400 nM

Question: What about the IC50 (MDA-PATC-53; Table 3, Panc) of the same molecule?
Answer: 2400 nM

Question: What about the IC50 (A375; Table 3, Melanoma) of the same molecule?
Answer: 1500 nM

Question: And the IC50 (WM35; Table 3, Melanoma)?
Answer: 1300 nM

Question: What about the IC50 (HH) of the same molecule?
Answer: 2300 nM

Question: What about the IC50 (LNZ-428) of the same molecule?
Answer: 1500 nM

Question: What about the IC50 231 of the same molecule?
Answer: 4800 nM

Question: What about the IC50 (Ovcar-5; Table 3, Ovarian) of the same molecule?
Answer: 1700 nM

Question: What about the IC50 (BT-58) of the same molecule?
Answer: 1800 nM

Question: And the IC50 (PC3; Table 3, Prostate)?
Answer: 2300 nM

Question: What about the IC50 (BT483; Table 3, Breast) of the same molecule?
Answer: 4200 nM

Question: What about the IC50 (231-MB) of the same molecule?
Answer: 1200 nM

Question: And the IC50 (4T1; Table 3, Breast)?
Answer: 4400 nM

Question: What about the IC50 (SK-MEL-28; Table 3, Melanoma) of the same molecule?
Answer: 2000 nM

Question: And the IC50 (MDA-PATC-108)?
Answer: 2400 nM

Question: And the IC50 (U87MG)?
Answer: 1700 nM

Question: And the IC50 (MIA-PaCa-2; Table 3, Panc)?
Answer: 1700 nM

Question: What about the IC50 (HuT78; Table 3, CTCL) of the same molecule?
Answer: 1900 nM

Question: What about the IC50 (HD2) of the same molecule?
Answer: 1700 nM

Question: What about the IC50 (WM793; Table 3, Melanoma) of the same molecule?
Answer: 2100 nM

Question: And the IC50 (Colo357-FG; Table 2, Colo357-FG)?
Answer: 2100 nM

Question: And the IC50 (Colo357-FG; Table 3, Panc)?
Answer: 2000 nM

Question: How did the IC50 (MDA-PATC-53; Table 2, MDA-PATC-53) turn out when `CCN(CC)CCOc1ccc(C(CC)(CC)NC(=O)/C(C#N)=C/c2cccc(Cl)n2)cc1` [WP 1722, (E)-3-(6-chloropyridin-2-yl)-2-cyano-N-(3-(4-(2-(diethylamino)ethoxy)phenyl)pentan-3-yl)acrylamide] was run?
Answer: 1100 nM

Question: And the IC50 (Colo357-FG; Table 2, Colo357-FG)?
Answer: 1200 nM

Question: How did the IC50 (SU.86.86; Homo sapiens, SU.86.86, Table 3, Panc) turn out when `CCC(CC)(NC(=O)/C(C#N)=C/c1cccc(Cl)n1)c1ccc(OCCOCCN2CCN(C)CC2)cc1` [WP1732] was run?
Answer: 1500 nM

Question: What about the IC50 (MDA-PATC-53; MDA-PATC53, 72 h, Table 3, Panc) of the same molecule?
Answer: 1800 nM

Question: What about the IC50 (A375; Homo sapiens, A-375, Table 3, Melanoma) of the same molecule?
Answer: 1100 nM

Question: And the IC50 (LN319)?
Answer: 2800 nM

Question: What about the IC50 (WM35; WM35, Table 3, Melanoma) of the same molecule?
Answer: 2300 nM

Question: What about the IC50 (HH; Homo sapiens, HH) of the same molecule?
Answer: 3200 nM

Question: And the IC50 (LNZ-428)?
Answer: 2300 nM

Question: What about the IC50 231 of the same molecule?
Answer: 2800 nM

Question: What about the IC50 (Ovcar-5; Homo sapiens, OVCAR-5, Table 3, Ovarian) of the same molecule?
Answer: 1700 nM

Question: And the IC50 (BT-58)?
Answer: 1800 nM

Question: And the IC50 (MDA-PATC-153)?
Answer: 2600 nM

Question: What about the IC50 (D423 enol) of the same molecule?
Answer: 2500 nM

Question: And the IC50 (PC3; Homo sapiens, PC-3, Table 3, Prostate)?
Answer: 1400 nM

Question: And the IC50 (BT483; Homo sapiens, BT-483, Table 3, Breast)?
Answer: 2300 nM

Question: What about the IC50 (231-MB) of the same molecule?
Answer: 1500 nM

Question: And the IC50 (4T1; Mus musculus, 4T1, Table 3, Breast)?
Answer: 4500 nM

Question: And the IC50 (SK-MEL-28; Homo sapiens, SK-MEL-28, Table 3, Melanoma)?
Answer: 1800 nM

Question: And the IC50 (MDA-PATC-108)?
Answer: 1600 nM

Question: And the IC50 (MDA-PATC-148)?
Answer: 1900 nM

Question: What about the IC50 (D423) of the same molecule?
Answer: 1400 nM

Question: What about the IC50 (U87MG; Homo sapiens, U-87 MG) of the same molecule?
Answer: 1800 nM

Question: What about the IC50 (MIA-PaCa-2; Homo sapiens, MIA PaCa-2, Table 3, Panc) of the same molecule?
Answer: 1600 nM

Question: What about the IC50 (HuT78; Homo sapiens, HuT78, Table 3, CTCL) of the same molecule?
Answer: 2900 nM

Question: What about the IC50 (HD2) of the same molecule?
Answer: 3800 nM

Question: What about the IC50 (WM793; Homo sapiens, WM793, Table 3, Melanoma) of the same molecule?
Answer: 1800 nM

Question: What about the IC50 (Colo357-FG; Homo sapiens, COLO 357/FG, 72 h, Table 3, Panc) of the same molecule?
Answer: 2600 nM

Question: Which IC50 (MDA-PATC-53; [1]) does the source give for `CCCC(CCC)(NC(=O)/C(C#N)=C/c1cccc(Cl)n1)c1ccc(OCCN(CC)CC)cc1` [WP 1734, (E)-3-(6-chloropyridin-2-yl)-2-cyano-N-(4-(4-(2-(diethylamino)ethoxy)phenyl)heptan-4-yl)acrylamide] here?
Answer: 1600 nM

Question: And the IC50 (Colo357-FG; [2])?
Answer: 1500 nM

Question: With `CCCC(CCC)(NC(=O)/C(C#N)=C/c1cccc(Cl)n1)c1ccc(OCCN2CCOCC2)cc1` [WP 1733, (E)-3-(6-chloropyridin-2-yl)-2-cyano-N-(4-(4-(2-morpholinoethoxy)phenyl)heptan-4-yl)acrylamide] as the molecule, how does the IC50 (MDA-PATC-53; [1]) read?
Answer: 1100 nM

Question: And the IC50 (Colo357-FG; [2])?
Answer: 950 nM
